From ChEMBL document CHEMBL1201862, “PubChem BioAssay data set” (2004)
Active and inactive are the calls of the source.

Assays:
[1] = molecular target: T1, Tyrosine-protein phosphatase non-receptor type 7 (Homo sapiens, UniProt P35236); type: functional
T1 sequence (P35236 whole entry): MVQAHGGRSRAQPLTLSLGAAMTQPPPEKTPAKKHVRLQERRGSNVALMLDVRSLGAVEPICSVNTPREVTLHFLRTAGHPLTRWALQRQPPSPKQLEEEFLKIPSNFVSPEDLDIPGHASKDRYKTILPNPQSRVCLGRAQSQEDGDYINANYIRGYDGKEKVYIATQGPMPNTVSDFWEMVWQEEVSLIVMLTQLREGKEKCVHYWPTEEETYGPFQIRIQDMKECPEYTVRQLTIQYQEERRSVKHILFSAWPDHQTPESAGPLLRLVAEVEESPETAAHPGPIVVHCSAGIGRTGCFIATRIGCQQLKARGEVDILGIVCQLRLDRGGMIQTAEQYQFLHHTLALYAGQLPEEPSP

[2] = molecular target: T2, Tyrosine-protein phosphatase non-receptor type 22 (Homo sapiens, UniProt Q9Y2R2); type: functional
T2 sequence (Q9Y2R2 whole entry): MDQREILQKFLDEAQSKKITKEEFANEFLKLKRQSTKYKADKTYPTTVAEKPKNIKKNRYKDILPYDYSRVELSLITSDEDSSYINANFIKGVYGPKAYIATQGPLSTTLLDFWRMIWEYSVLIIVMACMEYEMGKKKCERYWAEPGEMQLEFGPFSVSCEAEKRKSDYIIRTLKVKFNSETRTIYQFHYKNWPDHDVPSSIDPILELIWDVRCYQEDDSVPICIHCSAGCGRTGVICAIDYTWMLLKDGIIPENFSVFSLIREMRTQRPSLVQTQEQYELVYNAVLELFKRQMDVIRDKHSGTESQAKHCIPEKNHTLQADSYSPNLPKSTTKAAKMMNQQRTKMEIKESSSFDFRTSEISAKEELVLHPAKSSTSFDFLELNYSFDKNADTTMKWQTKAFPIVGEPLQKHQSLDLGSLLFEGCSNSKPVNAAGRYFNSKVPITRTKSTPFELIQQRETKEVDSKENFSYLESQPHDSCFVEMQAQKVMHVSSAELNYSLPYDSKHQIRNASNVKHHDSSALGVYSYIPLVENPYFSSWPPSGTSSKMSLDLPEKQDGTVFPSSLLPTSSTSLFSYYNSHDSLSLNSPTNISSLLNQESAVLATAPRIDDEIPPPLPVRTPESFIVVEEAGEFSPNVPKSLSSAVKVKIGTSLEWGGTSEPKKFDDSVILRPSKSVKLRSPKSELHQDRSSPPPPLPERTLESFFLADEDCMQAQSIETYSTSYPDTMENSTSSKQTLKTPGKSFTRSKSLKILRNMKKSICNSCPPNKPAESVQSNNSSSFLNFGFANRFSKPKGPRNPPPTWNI

[3] = molecular target: T2, Tyrosine-protein phosphatase non-receptor type 22; type: functional; remark: listed apart in the source
[4] = decrease of insulin promoter-GFP reporter – imaging, high-content screening, mouse beta cells (AID 1628); type: functional; conditions: MIN6
[5] = MIN6 cell viability loss – mouse insulinoma, cytotoxicity control, dose response (AID 2122); type: functional;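 also: confirmatory high-throughput counterscreen run to flag cytotoxic compounds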
[6] = molecular target: T3, Alkaline phosphatase, tissue-nonspecific isozyme (Homo sapiens, UniProt P05186); test: activation of tissue-nonspecific alkaline phosphatase – biochemical, TNAP isozyme, human IAP uHTS hits, selectivity assay for human IAP activator project, dose response (AID 488886); type: functional;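 also: potency of compounds raising TNAP activity as a selectivity check on IAP activators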
T3 sequence (P05186 whole entry): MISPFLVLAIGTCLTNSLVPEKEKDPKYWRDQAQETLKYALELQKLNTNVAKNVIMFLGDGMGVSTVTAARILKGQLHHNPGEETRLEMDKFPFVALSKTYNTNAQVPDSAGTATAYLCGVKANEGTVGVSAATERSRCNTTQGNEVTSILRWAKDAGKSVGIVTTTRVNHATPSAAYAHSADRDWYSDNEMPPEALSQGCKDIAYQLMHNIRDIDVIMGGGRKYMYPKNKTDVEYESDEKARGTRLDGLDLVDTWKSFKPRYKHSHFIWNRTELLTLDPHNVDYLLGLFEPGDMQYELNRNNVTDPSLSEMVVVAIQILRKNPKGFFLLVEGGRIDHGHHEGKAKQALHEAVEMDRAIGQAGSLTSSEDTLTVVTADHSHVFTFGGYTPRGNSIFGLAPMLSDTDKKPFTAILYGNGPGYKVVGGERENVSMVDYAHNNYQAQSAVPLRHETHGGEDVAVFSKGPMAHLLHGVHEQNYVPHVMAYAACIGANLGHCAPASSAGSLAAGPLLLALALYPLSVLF

[7] = molecular target: T4, Intestinal-type alkaline phosphatase (Homo sapiens, UniProt P09923); test: human intestinal alkaline phosphatase activators, dose response, biochemical, luminescence, uHTS hits (AID 463120); type: functional
[8] = molecular target: Intestinal-type alkaline phosphatase (Mus musculus, UniProt P24822); test: PubChem AID 488875; type: functional
[9] = molecular target: T4, Intestinal-type alkaline phosphatase; test: activation of human intestinal alkaline phosphatase – biochemical, luminescent, uHTS hits, set 2, dose response (AID 488817); type: functional;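 also: potency of activators that raise enzyme activity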
BJ [10] = test: cells; type: functional, cell-based; conditions: Homo sapiens
[11] = molecular target: Nucleotide-binding oligomerization domain-containing protein 2 (Homo sapiens, UniProt Q9HC29); test: inhibition of NOD2-driven NF-kB reporter – cell-based, luminescence, uHTS, HEK293 (AID 1566); type: functional
HEK293 [12] = test: inhibition of NOD1-driven NF-kB reporter – cell-based, luminescence, uHTS, primary screen (AID 1578); type: functional; conditions: Homo sapiens
[13] = molecular target: T5, Microphthalmia-associated transcription factor (Homo sapiens, UniProt O75030); test: reducers of TRPM1 reporter luminescence, concentration series – cell-based, SK-MEL-5, cherry-picked, set 3, MITF inhibitor project, dose response (AID 493073); type: functional;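 also: SK-MEL-5 melanoma cells with luciferase driven by the MITF target TRPM1 promoter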
T5 sequence (O75030 whole entry): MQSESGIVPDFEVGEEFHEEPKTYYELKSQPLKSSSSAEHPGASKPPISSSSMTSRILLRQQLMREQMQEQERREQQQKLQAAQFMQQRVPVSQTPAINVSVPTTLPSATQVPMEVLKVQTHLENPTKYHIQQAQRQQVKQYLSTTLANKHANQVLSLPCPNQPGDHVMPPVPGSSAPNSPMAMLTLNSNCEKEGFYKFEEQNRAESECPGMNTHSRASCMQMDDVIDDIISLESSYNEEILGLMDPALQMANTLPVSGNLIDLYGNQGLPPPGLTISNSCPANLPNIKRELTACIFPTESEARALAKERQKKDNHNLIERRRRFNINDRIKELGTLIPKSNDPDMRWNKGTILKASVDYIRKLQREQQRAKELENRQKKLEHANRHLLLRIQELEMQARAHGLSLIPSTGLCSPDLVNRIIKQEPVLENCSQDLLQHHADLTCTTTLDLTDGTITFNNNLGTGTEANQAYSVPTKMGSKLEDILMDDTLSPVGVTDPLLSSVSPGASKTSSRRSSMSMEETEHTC

HEK293 [14] = test: cells; type: functional, cell-based; conditions: Homo sapiens
BJ [15] = test: BJ-TERT fibroblast viability loss – cell-based, RAS-independent, luminescence, dose response (AID 1933); type: functional; conditions: Homo sapiens
[16] = DRD fibroblast viability loss – cell-based, non-viral oncogenic, luminescence, dose response (AID 1934); type: functional; conditions: Homo sapiens
HEK293 [17] = test: cells; type: functional, cell-based; conditions: Homo sapiens; remark: listed apart in the source
[18] = Luminescence Cell-Based Dose Retest to Confirm Inhibitors of Cancer Stem Cells. [Related pubchem assays (depositor defined):AID2717, AID2721]; type: functional; conditions: Homo sapiens
BJ [19] = test: BJ-TERT-LT-ST fibroblast viability loss – cell-based, RAS-independent, luminescence, dose response (AID 1935); type: functional; conditions: Homo sapiens;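 also: BJ fibroblasts immortalized with TERT plus LT and ST oncogenes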
[20] = molecular target: G-protein coupled receptor 55 (Homo sapiens, UniProt Q9Y2T6); test: selective activators of receptor GPR55 – imaging, U2OS cells, beta-arrestin-GFP redistribution, primary screen (AID 1961); type: functional
HEK293 [21] = test: NOD2 signaling inhibitors in MDP-stimulated cells, cell-based, uHTS, luminescence (AID 2001); type: functional; conditions: Homo sapiens
HEK293 [22] = test: cells; type: functional, cell-based; conditions: Homo sapiens; remark: listed apart in the source
HEK293 [23] = test: cells; conditions: Homo sapiens
Tumor necrosis factor = Tumor necrosis factor (Homo sapiens, UniProt P01375); test: analog potency on TNFa NF-kB signaling – cell-based, revised, SAR follow-up (AID 2337); type: functional
[24] = molecular target: T6, Nucleotide-binding oligomerization domain-containing protein 1 (Homo sapiens, UniProt Q9Y239); test: blockers of NOD1 pathway activity – revised, SAR follow-up (AID 2333); type: functional
T6 sequence (Q9Y239 whole entry): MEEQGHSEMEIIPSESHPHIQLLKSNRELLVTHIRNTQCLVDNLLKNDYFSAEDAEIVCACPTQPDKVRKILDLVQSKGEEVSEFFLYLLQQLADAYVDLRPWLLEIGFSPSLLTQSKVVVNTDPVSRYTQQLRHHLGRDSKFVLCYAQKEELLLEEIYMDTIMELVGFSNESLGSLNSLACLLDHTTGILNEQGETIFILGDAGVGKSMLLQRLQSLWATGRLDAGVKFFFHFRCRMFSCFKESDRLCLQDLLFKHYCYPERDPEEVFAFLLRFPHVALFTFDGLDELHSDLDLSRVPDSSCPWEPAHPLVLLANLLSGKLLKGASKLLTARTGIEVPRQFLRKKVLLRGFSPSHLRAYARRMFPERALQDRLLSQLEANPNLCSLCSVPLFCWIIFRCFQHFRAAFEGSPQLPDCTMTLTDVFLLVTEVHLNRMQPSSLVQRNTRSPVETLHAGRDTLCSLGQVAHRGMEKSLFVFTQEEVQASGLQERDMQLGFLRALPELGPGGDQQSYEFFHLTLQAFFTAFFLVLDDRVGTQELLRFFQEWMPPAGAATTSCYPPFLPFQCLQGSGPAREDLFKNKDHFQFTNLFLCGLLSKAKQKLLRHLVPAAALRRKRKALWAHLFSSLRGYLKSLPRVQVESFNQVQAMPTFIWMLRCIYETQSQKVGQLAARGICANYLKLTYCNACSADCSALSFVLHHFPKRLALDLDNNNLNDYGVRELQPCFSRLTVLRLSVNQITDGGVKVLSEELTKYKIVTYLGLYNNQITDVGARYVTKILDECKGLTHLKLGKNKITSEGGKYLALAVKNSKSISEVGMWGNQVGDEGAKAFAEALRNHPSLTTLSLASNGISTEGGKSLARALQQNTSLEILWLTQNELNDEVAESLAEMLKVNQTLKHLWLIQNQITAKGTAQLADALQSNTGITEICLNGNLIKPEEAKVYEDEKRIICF

T4 sequence (P09923 whole entry): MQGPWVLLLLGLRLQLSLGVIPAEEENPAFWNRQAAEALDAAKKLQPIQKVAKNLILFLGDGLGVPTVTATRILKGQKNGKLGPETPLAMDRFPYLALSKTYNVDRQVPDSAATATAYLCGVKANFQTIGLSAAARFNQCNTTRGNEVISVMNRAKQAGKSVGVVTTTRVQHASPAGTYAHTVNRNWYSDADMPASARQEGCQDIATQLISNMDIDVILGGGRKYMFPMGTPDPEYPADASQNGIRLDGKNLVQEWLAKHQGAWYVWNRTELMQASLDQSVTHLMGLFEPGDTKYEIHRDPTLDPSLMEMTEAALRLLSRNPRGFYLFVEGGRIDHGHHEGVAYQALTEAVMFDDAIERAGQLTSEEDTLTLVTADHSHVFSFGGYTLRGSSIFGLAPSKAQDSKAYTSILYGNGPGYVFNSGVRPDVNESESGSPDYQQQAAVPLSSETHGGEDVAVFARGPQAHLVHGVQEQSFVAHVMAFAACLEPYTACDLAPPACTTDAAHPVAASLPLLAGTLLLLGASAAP
Nucleotide-binding oligomerization domain-containing protein 2, sequence (Q9HC29 whole entry, the tested form may be a part): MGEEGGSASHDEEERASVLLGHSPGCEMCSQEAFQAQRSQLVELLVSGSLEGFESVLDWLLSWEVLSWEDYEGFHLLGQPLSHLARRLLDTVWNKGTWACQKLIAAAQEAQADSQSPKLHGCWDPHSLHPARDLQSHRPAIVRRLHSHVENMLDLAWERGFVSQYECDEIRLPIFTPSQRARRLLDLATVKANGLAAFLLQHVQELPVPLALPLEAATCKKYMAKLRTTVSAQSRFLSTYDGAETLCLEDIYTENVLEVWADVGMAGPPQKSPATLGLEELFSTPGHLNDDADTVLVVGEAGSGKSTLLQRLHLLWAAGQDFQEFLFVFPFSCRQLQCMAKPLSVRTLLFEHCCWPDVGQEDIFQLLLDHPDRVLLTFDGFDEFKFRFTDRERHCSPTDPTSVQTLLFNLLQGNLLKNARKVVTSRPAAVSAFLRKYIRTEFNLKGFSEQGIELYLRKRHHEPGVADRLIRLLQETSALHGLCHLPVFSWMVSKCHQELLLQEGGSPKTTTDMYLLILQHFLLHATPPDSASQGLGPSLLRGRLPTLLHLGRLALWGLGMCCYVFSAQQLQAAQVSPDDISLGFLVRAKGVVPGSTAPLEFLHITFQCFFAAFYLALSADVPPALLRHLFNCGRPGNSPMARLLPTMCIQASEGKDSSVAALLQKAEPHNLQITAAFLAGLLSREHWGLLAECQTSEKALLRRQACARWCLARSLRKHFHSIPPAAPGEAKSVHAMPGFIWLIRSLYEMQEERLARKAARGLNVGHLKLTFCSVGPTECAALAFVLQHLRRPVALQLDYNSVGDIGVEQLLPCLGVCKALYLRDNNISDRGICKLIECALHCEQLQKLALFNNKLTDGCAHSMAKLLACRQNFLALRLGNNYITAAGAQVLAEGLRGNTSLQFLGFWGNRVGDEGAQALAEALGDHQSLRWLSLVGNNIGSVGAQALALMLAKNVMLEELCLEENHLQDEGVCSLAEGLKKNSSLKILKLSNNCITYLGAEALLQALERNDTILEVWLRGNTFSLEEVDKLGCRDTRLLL
Intestinal-type alkaline phosphatase (Mus musculus, UniProt P24822), sequence (P24822 whole entry): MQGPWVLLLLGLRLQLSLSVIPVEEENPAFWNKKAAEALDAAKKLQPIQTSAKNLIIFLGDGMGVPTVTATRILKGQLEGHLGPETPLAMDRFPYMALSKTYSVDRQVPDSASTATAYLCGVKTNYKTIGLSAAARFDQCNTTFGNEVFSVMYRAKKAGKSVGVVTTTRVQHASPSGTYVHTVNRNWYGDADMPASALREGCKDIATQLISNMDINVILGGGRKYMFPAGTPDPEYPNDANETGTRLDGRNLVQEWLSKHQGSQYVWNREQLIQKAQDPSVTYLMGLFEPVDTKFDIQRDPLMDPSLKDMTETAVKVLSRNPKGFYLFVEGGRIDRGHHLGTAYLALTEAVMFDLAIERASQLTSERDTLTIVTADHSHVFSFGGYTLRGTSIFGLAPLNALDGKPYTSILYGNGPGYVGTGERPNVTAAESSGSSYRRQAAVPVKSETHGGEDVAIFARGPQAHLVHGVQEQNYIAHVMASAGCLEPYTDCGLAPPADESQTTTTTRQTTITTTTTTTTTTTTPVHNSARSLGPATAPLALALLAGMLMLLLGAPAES
G-protein coupled receptor 55, sequence (Q9Y2T6 whole entry): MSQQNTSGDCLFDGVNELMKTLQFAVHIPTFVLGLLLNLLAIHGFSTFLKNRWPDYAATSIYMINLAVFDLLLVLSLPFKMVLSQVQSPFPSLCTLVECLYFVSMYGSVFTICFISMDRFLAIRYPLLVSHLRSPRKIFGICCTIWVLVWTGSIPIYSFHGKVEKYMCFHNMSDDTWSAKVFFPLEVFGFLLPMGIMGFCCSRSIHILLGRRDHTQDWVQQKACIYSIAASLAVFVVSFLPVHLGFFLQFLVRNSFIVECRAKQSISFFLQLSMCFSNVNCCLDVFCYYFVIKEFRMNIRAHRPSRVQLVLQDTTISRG
Tumor necrosis factor, sequence (P01375 whole entry, the tested form may be a part): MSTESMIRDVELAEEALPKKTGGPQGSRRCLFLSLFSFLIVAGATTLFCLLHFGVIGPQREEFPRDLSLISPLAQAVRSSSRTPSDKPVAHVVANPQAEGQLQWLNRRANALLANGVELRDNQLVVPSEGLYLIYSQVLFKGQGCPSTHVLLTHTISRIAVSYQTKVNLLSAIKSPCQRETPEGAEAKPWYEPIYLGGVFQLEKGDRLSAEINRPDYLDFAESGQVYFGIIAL

CC12CCC(=O)N1c1ccccc1C(=O)N2c1ccccc1 (stereo unspecified)
inactive: IC50 [1] > 79.4 µM | IC50 [2] > 79.4 µM | IC50 [3] > 79.4 µM

COc1ccc(NCc2nc3ccccc3n2CCOc2ccc(C)cc2)cc1
active: IC50 [4] 2 µM | IC50 [5] 4.54 µM

Cc1nc(Nc2nc3c(c(=O)[nH]2)CCC3)nc2ccccc12
inactive: EC50 [8] > 100 µM
active: EC50 [6] 26.1 µM | EC50 [7] 13.1 µM | EC50 [9] 17.6 µM

O=C1NC(=O)N(Cc2ccccc2)C(=O)/C1=C/C=C/c1ccco1
inactive: EC50 [11] > 20 µM | EC50 (HEK293 [12]) > 20 µM | IC50 (HEK293 [14]) > 20 µM | IC50 (HEK293 [17]) > 20 µM | EC50 [20] > 32 µM | IC50 (HEK293 [21]) > 20 µM
inconclusive: EC50 (BJ [15]) 5.74 µM | EC50 [16] 5.85 µM
active: EC50 (BJ [10]) 8.18 µM | AC50 [13] 4.85 µM | AC50 [18] 1.47 µM | EC50 (BJ [19]) 4.14 µM | IC50 (HEK293 [22]) 17.5 µM

Cc1cccc(-n2ncc3c2CCCC3NC(=O)C2(C(N)=O)CC2)c1C (stereo unspecified)
active: EC50 [11] 19.7 µM | EC50 (HEK293 [12]) 2.53 µM | IC50 (Tumor necrosis factor) 14.5 µM | IC50 [24] 4.31 µM | IC50 (HEK293 [22]) 9.93 µM
inactive: IC50 (HEK293 [23]) > 20 µM | IC50 (HEK293 [14]) > 20 µM | IC50 (HEK293 [17]) > 20 µM | IC50 (HEK293 [21]) 16.2 µM
